Biological target: Beta-secretase 1 (Homo sapiens, UniProt P56817)
Assay: Inhibition of BACE (unknown origin)

Beta-secretase 1, sequence (P56817 whole entry): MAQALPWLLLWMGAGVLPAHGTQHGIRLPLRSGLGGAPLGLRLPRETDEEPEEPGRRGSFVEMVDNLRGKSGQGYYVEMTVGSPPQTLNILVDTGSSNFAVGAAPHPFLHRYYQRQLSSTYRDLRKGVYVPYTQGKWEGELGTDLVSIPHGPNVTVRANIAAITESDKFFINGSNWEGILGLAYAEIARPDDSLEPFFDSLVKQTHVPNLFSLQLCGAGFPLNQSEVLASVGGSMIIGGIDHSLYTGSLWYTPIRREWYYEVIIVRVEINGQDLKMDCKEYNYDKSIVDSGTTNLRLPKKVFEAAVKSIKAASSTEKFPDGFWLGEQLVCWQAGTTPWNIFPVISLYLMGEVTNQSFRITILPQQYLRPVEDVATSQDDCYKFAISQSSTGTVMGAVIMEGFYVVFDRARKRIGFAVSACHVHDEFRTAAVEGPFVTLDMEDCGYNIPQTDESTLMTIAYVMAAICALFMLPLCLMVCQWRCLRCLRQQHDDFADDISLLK

SMILES | Ki [µM]
CC(C)C[C@H](NCC(=O)[C@H](CC(N)=O)NC(=O)OC(C)(C)C)[C@@H](O)C[C@@H](C)C(=O)N[C@@H](C)C(=O)NCc1ccccc1 | 22.4
CSC[C@@H](NC(=O)[C@@H](NC(=O)OC(C)(C)C)C(C)C)C(=O)CN[C@@H](CC(C)C)[C@@H](O)C[C@@H](C)C(=O)N[C@H](C(=O)NCc1ccccc1)C(C)C | 50.1
CC(C)C[C@H](NCC(=O)[C@H](CC(N)=O)NC(=O)[C@@H](NC(=O)OC(C)(C)C)C(C)C)[C@@H](O)C[C@@H](C)C(=O)N[C@@H](C)C(=O)NCc1ccccc1 | 61.4
CSCC[C@@H](NC(=O)[C@@H](NC(=O)OC(C)(C)C)C(C)C)C(=O)CN[C@@H](CC(C)C)[C@@H](O)C[C@@H](CC(C)C)C(=O)N[C@@H](C(=O)NCc1ccccc1)C(C)C | 10.5
CC(C)C[C@H](NCC(=O)[C@H](CS(C)(=O)=O)NC(=O)[C@@H](NC(=O)OC(C)(C)C)C(C)C)[C@@H](O)C[C@@H](C)C(=O)N[C@@H](C(=O)NCc1ccccc1)C(C)C | 9.4

These reach a lower Ki. Values come first.

Ki [µM] | SMILES
5.81 | CSCC[C@@H](NC(=O)OC(C)(C)C)C(=O)CN[C@@H](CC(C)C)[C@@H](O)C[C@@H](C)C(=O)N[C@H](C(=O)NCc1ccccc1)C(C)C
3.13 | CC(C)C[C@H](NCC(=O)[C@H](CC(N)=O)NC(=O)OC(C)(C)C)[C@@H](O)C[C@@H](C)C(=O)N[C@H](C(=O)NCc1ccccc1)C(C)C
1.13 | CC(C)C[C@H](NCC(=O)[C@H](CS(C)(=O)=O)NC(=O)OC(C)(C)C)[C@@H](O)C[C@@H](C)C(=O)N[C@H](C(=O)NCc1ccccc1)C(C)C
5.9 | CC(C)C[C@H](NCC(=O)[C@H](CC(N)=O)NC(=O)[C@@H](NC(=O)OC(C)(C)C)C(C)C)[C@@H](O)C[C@@H](C)C(=O)N[C@@H](C(=O)NCc1ccccc1)C(C)C
8 | CC(C)C[C@H](NCC(=O)[C@@H](CCS(C)(=O)=O)NC(=O)[C@@H](NC(=O)OC(C)(C)C)C(C)C)[C@@H](O)C[C@@H](C)C(=O)N[C@@H](C(=O)NCc1ccccc1)C(C)C
2.5 | CSCC[C@@H](NC(=O)[C@@H](NC(=O)OC(C)(C)C)C(C)C)C(=O)CN[C@@H](CC(C)C)[C@@H](O)C[C@@H](C)C(=O)NC(C(=O)NCc1ccccc1)C(C)C (single isomer, unassigned)
